Test results taken from patent publication US20110071630A1, “SODIUM CHANNEL BLOCKER DELIVERY SYSTEM WITH SCLERAL LENS” (Boston Foundation for Sight, priority 2009, published 2011).

Legend:
[1] = test system: cornea; conditions: 0.05% concentration, after photorefractive keratectomy; cited from earlier work
[2] = test system: corneal neuropathic pain; assay: Treatment of corneal neuropathic pain in patients, drug solution in the fluid reservoir of a scleral lens (BOS-P); assay type: in vivo, human
Protocol: (§1) A patient with well established primary Sjögren's syndrome and severe dry eyes was treated for intense, constant corneal pain using the anesthetic delivery system disclosed herein. Specifically, the patient was treated with bupivacaine and BOS-P devices. The concentration of non-preserved bupivacaine was rapidly titrated using frequent (every 2-5 minutes) drops in the more symptomatic left eye (open label) measuring corneal sensitivity with a Cochet-Bonnet aesthesiometer (with adequate recovery times) until reaching the concentration that avoided any depression of corneal sensitivity. The sub-anesthetic concentration in this patient was determined to be 0.001%. Both BOS-P devices were filled with 0.001% bupivacaine and inserted into the patient's eyes. The patient then left.
The patient was given a vial of 0.01% bupivacaine to dilute 1:10 (e.g., add one drop of 0.01% bupivacaine to nine drops of saline) to fill the reservoir of the left lens prior to inserting it the next morning.
They wore the BOS-P containing 0.001% bupivacaine in their left eye, and the BOS-P containing saline in their right eye unmasked to the patient and doctor, for about 8 hours. […] Corneal sensation in the treated eye was normal. […]

[3] = test system: corneal sensation; assay: Corneal sensitivity measured with a Cochet-Bonnet aesthesiometer; assay type: in vivo, human
From the text: The sub-hypoesthetic dose for a sodium channel blocker or a sodium channel modulator may vary between patients. […] The sub-hypoesthetic dose of a sodium channel blocker or a sodium channel modulator can be determined for an individual patient by selecting a higher starting concentration and gradually reducing the concentration via titration until reaching a sub-hypoesthetic dose as determined by a contact and non-contact esthesiometer. A non-limiting example of a method of determining corneal sensitivity is Cochet-Bonnet aesthesiometry.
As used herein, the phrases “sub-anesthetic dose” and “sub-anesthetic concentration” refer to a dose of a sodium channel blocker or a sodium channel modulator or a sodium channel modulator that is lower than the anesthetic dose. “Sub-anesthetic dose” and “sub-anesthetic concentration” may be used interchangeably. The sub-anesthetic dose of a sodium channel blocker or a sodium channel modulator may vary between patients. The sub-anesthetic dose of a sodium channel blocker or a sodium channel modulator can be determined for an individual patient by selecting a higher starting concentration and gradually reducing the concentration via titration until reaching a sub-anesthetic dose as determined by a contact and non-contact esthesiometer. A non-limiting example of a starting concentration of a sodium channel blocker or a sodium channel modulator is about 0.02%. In some embodiments, the concentration of the sodium channel blocker or a sodium channel modulator may be titrated down to a concentration that avoids any depression of corneal sensitivity. A non-limiting example of a method of determining corneal sensitivity is Cochet-Bonnet aesthesiometry.
as §1
The patient was given a vial of 0.01% bupivacaine to dilute 1:10 (e.g., add one drop of 0.01% bupivacaine to nine drops of saline) to fill the reservoir of the left lens prior to inserting it the next morning. […]

[4] = test system: cornea; assay: Examination of the cornea for adverse effects (fluorescein staining, slit lamp examination, confocal microscopy); assay type: in vivo, human
Protocol: They wore the BOS-P containing 0.001% bupivacaine in their left eye, and the BOS-P containing saline in their right eye unmasked to the patient and doctor, for about 8 hours. […] Corneal sensation in the treated eye was normal.
The patient returned the following day 2 hours after inserting the scleral lenses containing 0.015% ropivacaine.
A patient suffered from severe corneal neuropathic pain for many years, greatly limiting the patient's quality of life. This disease was refractory to previous treatments. Lacosamide was placed in the fluid reservoir of the device where it remained in contact with the cornea while it was worn (approximately 10 hours/day).

[5] = test system: corneal neuropathic pain; assay: Eye drops without scleral lens for corneal neuropathic pain; assay type: in vivo, human; conditions: Example 5, eye drops 0.5% lacosamide
Protocol: Eye drops containing 0.5% lacosamide were administered to the eyes of two patients and to the an eye of the inventor. […] Therefore, it is believed that lacosamide may be used in eye drops at a concentration of up to 5% to treat corneal neuropathic pain without depressing corneal sensation.

For `CCCOc1ccc(C(=O)OCCN(CC)CC)cc1N` [Proparacaine, proparacaine], the “anesthetic effect, toxicity and safety” value [1] is listed as “non-anesthetic, non-toxic, and safe for at least one week of use”.
With `COC[C@@H](NC(C)=O)C(=O)NCc1ccccc1` [lacosamide] the corneal neuropathic pain ([2]; Example 4, 0.003% lacosamide in BOS-P, approximately 10 hours/day) was “significantly mitigated”, the “eye and co-morbid pain symptoms” value ([2]; Example 6, chronic graft versus host disease patient, lacosamide 0.05% in scleral lens reservoir) was “disappeared” and the “maximum concentration that avoided significant depression of corneal sensation” value ([3]; Example 4, titration, fluid reservoir of BOS-P) was 0.003%. The corneal sensation ([3]; Example 5, eye drops 0.5% lacosamide, two patients and an eye of the inventor) was “did not depress corneal sensation”, the “effects on the corneas by slit lamp examination and confocal microscopy” value ([4]; Example 4, 0.003% lacosamide in BOS-P) was “without any detrimental effects to the corneas” and the “duration of effect, one patient” value [5] was “over four hours”. The “duration of effect, the other patient” value [5] was “over two hours”, the “onset of pain resolution” value [5] was “almost immediately after administration” and the corneal neuropathic pain ([5]; both patients) was “complete resolution of corneal neuropathic pain”.
With `CCCCN1CCCCC1C(=O)Nc1c(C)cccc1C` (stereo not shown) [bupivacaine] the “eye comfort reported by patient” value ([2]; Example 1, next day after both BOS-P devices were filled with 0.001% bupivacaine) was “more comfortable than they had been in 3 months”, the “pain reported by patient at day's end” value ([2]; Example 1, second day, left lens reservoir filled with non-preserved bupivacaine) was “virtual absence of pain in either eye” and the “pain after exposure to glass cleaner or white board marker” value ([2]; Example 1, second day, exposure would ordinarily trigger severe pain) was “little or no pain”. The “pain reported after about 8 hours of wear” value ([2]; Example 1, third day, 0.001% bupivacaine in left BOS-P, saline in right BOS-P) was “virtually no pain in either eye”, the “pain, Visual Analog Scale” value ([2]; Example 1, third day, on arrival) was “virtually no pain in either eye” and the “eye symptoms (photosensitivity, burning pain, inability to read)” value ([2]; Example 2, 0.002% bupivacaine in both BOS-P lenses, at least 12 hours/day, over several weeks) was “resolved”. For the same compound, the eye symptoms ([2]; Example 2, bupivacaine diluted to 0.0014% in BOS-P) was “resolved”, the “sub-anesthetic concentration (concentration that avoided any depression of corneal sensitivity)” value ([3]; Example 1, Sjögren's syndrome patient, titration with drops every 2-5 minutes in left eye) was 0.001% and the “corneal sensation by Cochet-Bonnet aesthesiometry” value ([3]; in vivo) was “remained intact”. The “fluorescein staining after lens removal” value ([4]; in vivo) was “no significant fluorescein staining in either eye”.
In the case of `CCCN1CCCC[C@H]1C(=O)Nc1c(C)cccc1C` [ropivacaine], the “eye pain and photophobia, lenses worn until midnight the previous day” value ([2]; Example 3, 0.015% ropivacaine in scleral lenses) is reported as “total resolution of eye pain and photophobia”, the “symptoms at examination, 2 hours after inserting lenses” value ([2]; Example 3, 0.015% ropivacaine, following day) is reported as “free of symptoms” and the “eye pain and photosensitivity following application” value ([2]; Example 3, Stevens-Johnson syndrome patient, 0.015% ropivacaine in scleral lenses, first day) is reported as “rapid mitigation of eye pain and photosensitivity”. The “eye pain and photophobia at subsequent examinations” value ([2]; Example 3, ropivacaine in scleral lenses) was “significant mitigation of eye pain and photophobia”, the “corneal sensitivities at subsequent examinations” value ([3]; in vivo) was “normal corneal sensitivities” and the “corneal sensitivity by Cochet-Bonnet aesthesiometer” value ([3]; in vivo) was “normal”. For the same compound, the “adverse effects on the eyes from the treatment” value ([4]; in vivo) was “no adverse effects” and the “treatment-related complications at subsequent examinations” value ([4]; in vivo) was “without adverse treatment-related complications”.
